Measured values reported in PubChem BioAssay AID248 (DTP/NCI, 2004).
Several values for one entry are separate records, joined by “and”; a condition that tells them apart may be missing. Equal values may be shown once. Toxic doses and inconclusive results are not listed. Rule as the data show it: active = T/C of 150% or more; inactive = T/C below 125%.

Test system: L1210 leukemia ip in BDF1 mice, survival T/C
Test: NCI In Vivo Anticancer Drug Screen. Data for tumor model L1210 Leukemia (intraperitoneal) in B6D2F1 (BDF1) mice
Conditions: endpoint: mean survival time, higher = longer survival
Summary of the method: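 In this screen, tumor-bearing mice given compound are compared to those given vehicle, and their survival values are reported as a treated-to-control quotient.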

[1] = dose: 100.0 mg/kg/injection, schedule: Q01DX001 (ip), vehicle: Klucel (hydroxypropylcellulose) (HPC)
[2] = dose: 200.0 mg/kg/injection, schedule: Q01DX001 (ip), vehicle: Klucel (hydroxypropylcellulose) (HPC)
[3] = dose: 100.0 mg/kg/injection, schedule: Q04DX003 (ip), vehicle: saline with Tween-80
[4] = dose: 200.0 mg/kg/injection, schedule: Q04DX003 (ip), vehicle: saline with Tween-80
[5] = dose: 50.0 mg/kg/injection, schedule: Q01DX001 (ip), vehicle: carboxymethylcellulose (CMC)
[6] = dose: 100.0 mg/kg/injection, schedule: Q01DX001 (ip), vehicle: saline
[7] = dose: 200.0 mg/kg/injection, schedule: Q01DX001 (ip), vehicle: saline
[8] = dose: 400.0 mg/kg/injection, schedule: Q01DX001 (ip), vehicle: saline
[9] = dose: 25.0 mg/kg/injection, schedule: Q04DX003 (ip), vehicle: saline
[10] = dose: 50.0 mg/kg/injection, schedule: Q04DX003 (ip), vehicle: saline
[11] = dose: 100.0 mg/kg/injection, schedule: Q01DX009 (ip), vehicle: saline
[12] = dose: 200.0 mg/kg/injection, schedule: Q01DX009 (ip), vehicle: saline
[13] = dose: 400.0 mg/kg/injection, schedule: Q01DX009 (ip), vehicle: saline

Measured: T/C

O=C(O)C1Nc2ccccc2NC1=O (stereo not drawn)
inactive: [1] 100 % of control | [2] 94 % of control | dose: 400.0 mg/kg/injection, schedule: Q01DX001 (ip), vehicle: Klucel (hydroxypropylcellulose) (HPC) 106 % of control

Cc1cc2ncn(CO)c2cc1C
inactive: [3] 100 % of control | [4] 94 % of control | dose: 400.0 mg/kg/injection, schedule: Q04DX003 (ip), vehicle: saline with Tween-80 100 % of control

CCOC(=O)c1cc(-c2ccccc2)c(-c2ccccc2)c(-c2ccccc2)c1-c1ccccc1
inactive: [5] 97 % of control | dose: 100.0 mg/kg/injection, schedule: Q01DX001 (ip), vehicle: carboxymethylcellulose (CMC) 100 % of control | dose: 200.0 mg/kg/injection, schedule: Q01DX001 (ip), vehicle: carboxymethylcellulose (CMC) 97 % of control

Cc1c(O)c(CN2CCOCC2)cc(CN2CCOCC2)c1O
inactive: [6] 86 % of control | [7] 90 % of control | [8] 86 % of control

CN1CCNC(=O)CC1
inactive: dose: 25.0 mg/kg/injection, schedule: Q01DX009 (ip), vehicle: water 106 % of control | dose: 50.0 mg/kg/injection, schedule: Q01DX009 (ip), vehicle: water 102 % of control | dose: 100.0 mg/kg/injection, schedule: Q01DX009 (ip), vehicle: water 98 % of control | dose: 200.0 mg/kg/injection, schedule: Q01DX009 (ip), vehicle: water 114 % of control

O=C(NCCCl)Nc1cccc(Cl)c1
inactive: dose: 25.0 mg/kg/injection, schedule: Q01DX001 (ip), vehicle: saline with Tween-80 97 % of control | dose: 50.0 mg/kg/injection, schedule: Q01DX001 (ip), vehicle: saline with Tween-80 94 % of control | dose: 100.0 mg/kg/injection, schedule: Q01DX001 (ip), vehicle: saline with Tween-80 86 % of control

Clc1ccc(C[As+](c2ccccc2)(c2ccccc2)c2ccccc2)cc1
inactive: dose: 20.0 mg/kg/injection, schedule: Q01DX001 (ip), vehicle: saline 97 % of control

O=S(=O)(F)c1c(Cl)cccc1C[P+](c1ccccc1)(c1ccccc1)c1ccccc1
inactive: dose: 6.25 mg/kg/injection, schedule: Q01DX001 (ip), vehicle: saline with Tween-80 99 % of control | dose: 12.5 mg/kg/injection, schedule: Q01DX001 (ip), vehicle: saline with Tween-80 100 % of control | dose: 25.0 mg/kg/injection, schedule: Q01DX001 (ip), vehicle: saline 105 % of control

CC1=C(C)CC2C(=O)c3c(O)ccc(O)c3C(=O)C2C1 (stereo not drawn)
inactive: dose: 100.0 mg/kg/injection, schedule: Q04DX002 (ip), vehicle: saline with Tween-80 91 % of control | dose: 200.0 mg/kg/injection, schedule: Q04DX002 (ip), vehicle: saline with Tween-80 95 % of control | dose: 400.0 mg/kg/injection, schedule: Q04DX002 (ip), vehicle: saline with Tween-80 91 % of control

Cc1ccc(C(=O)/C(Cl)=N/O)cc1
inactive: dose: 50.0 mg/kg/injection, schedule: Q01DX001 (ip), vehicle: other 96 % of control | dose: 100.0 mg/kg/injection, schedule: Q01DX001 (ip), vehicle: other 104 % of control

CCCCC(=O)c1ccc(C)cc1
inactive: [6] 102 % of control | [7] 98 % of control | [8] 96 % of control

Cc1c(Cl)cccc1NC(=O)COc1ccc(Cl)cc1Cl
inactive: dose: 100.0 mg/kg/injection, schedule: Q01DX009 (ip), vehicle: saline with Tween-80 88 % of control | dose: 200.0 mg/kg/injection, schedule: Q01DX009 (ip), vehicle: saline with Tween-80 93 % of control | dose: 400.0 mg/kg/injection, schedule: Q01DX009 (ip), vehicle: saline with Tween-80 98 % of control

CC(O)C[As](=O)(O)c1ccc(Cl)cc1 (stereo not drawn)
inactive: dose: 25.0 mg/kg/injection, schedule: Q04DX003 (ip), vehicle: saline with Tween-80 94 % of control

c1nc2c([nH]1)CCCC2
inactive: dose: 25.0 mg/kg/injection, schedule: Q01DX001 (ip), vehicle: carboxymethylcellulose (CMC) 106 % of control | dose: 25.0 mg/kg/injection, schedule: Q01DX009 (ip), vehicle: carboxymethylcellulose (CMC) 103 % of control and 91 % of control | dose: 25.0 mg/kg/injection, schedule: Q04DX002 (ip), vehicle: carboxymethylcellulose (CMC) 94 % of control and 102 % of control | dose: 25.0 mg/kg/injection, schedule: Q04DX003 (ip), vehicle: carboxymethylcellulose (CMC) 95 % of control | [5] 102 % of control | dose: 50.0 mg/kg/injection, schedule: Q01DX009 (ip), vehicle: carboxymethylcellulose (CMC) 94 % of control and 92 % of control | dose: 50.0 mg/kg/injection, schedule: Q04DX002 (ip), vehicle: carboxymethylcellulose (CMC) 94 % of control and 104 % of control | dose: 50.0 mg/kg/injection, schedule: Q04DX003 (ip), vehicle: carboxymethylcellulose (CMC) 105 % of control | dose: 100.0 mg/kg/injection, schedule: Q04DX003 (ip), vehicle: carboxymethylcellulose (CMC) 92 % of control

C[N+](C)(C)N=C1CCC2(CC1)c1ccccc1-c1ccccc12
inactive: dose: 12.5 mg/kg/injection, schedule: Q01DX009 (ip), vehicle: saline 95 % of control | dose: 12.5 mg/kg/injection, schedule: Q04DX003 (ip), vehicle: saline 103 % of control | dose: 25.0 mg/kg/injection, schedule: Q01DX009 (ip), vehicle: saline 93 % of control | [9] 100 % of control | [10] 95 % of control

O=C1NC(=S)SC1C(Cc1ccccc1)Cc1ccccc1 (stereo not drawn)
inactive: [6] 97 % of control | [7] 97 % of control | [8] 101 % of control

O=C(O)CNC(=O)Nc1cccc(Cl)c1
inactive: dose: 50.0 mg/kg/injection, schedule: Q01DX001 (ip), vehicle: Klucel (hydroxypropylcellulose) (HPC) 100 % of control | [1] 105 % of control | [2] 108 % of control

COc1cc(NC2CCCCC2O)c2nc(-c3ccc(Cl)cc3)ccc2c1 (stereo not drawn)
inactive: [11] 98 % of control | [12] 90 % of control | [13] 86 % of control

O=C(CCCNC(=O)OCc1ccccc1)NCCCCCCCCCCNC(=O)CCCNC(=O)OCc1ccccc1
inactive: dose: 10.0 mg/kg/injection, schedule: Q01DX012 (ip), vehicle: saline 102 % of control | dose: 30.0 mg/kg/injection, schedule: Q01DX012 (ip), vehicle: saline 96 % of control | dose: 100.0 mg/kg/injection, schedule: Q01DX012 (ip), vehicle: saline 90 % of control | dose: 300.0 mg/kg/injection, schedule: Q01DX012 (ip), vehicle: saline 91 % of control

O=C(N/N=C/c1cccc([N+](=O)[O-])c1)c1cccc2ccccc12
inactive: [7] 92 % of control | [8] 95 % of control

NNc1ccc(Cl)c(S(=O)(=O)O)c1
inactive: [11] 100 % of control | dose: 100.0 mg/kg/injection, schedule: Q04DX003 (ip), vehicle: alcohol 98 % of control | [12] 100 % of control | dose: 200.0 mg/kg/injection, schedule: Q04DX003 (ip), vehicle: alcohol 104 % of control | [13] 103 % of control | dose: 400.0 mg/kg/injection, schedule: Q04DX003 (ip), vehicle: alcohol 106 % of control

Oc1ccc(Br)c2cccnc12
inactive: dose: 50.0 mg/kg/injection, schedule: Q01DX001 (ip), vehicle: saline 100 % of control | [6] 103 % of control | [7] 103 % of control | [8] 100 % of control

NNC(=O)c1ccc(Cl)cc1Nc1ccc(F)cc1
inactive: [9] 94 % of control | [10] 100 % of control | dose: 100.0 mg/kg/injection, schedule: Q01DX001 (ip), vehicle: saline sonified 111 % of control

CCCCCCCCCC(=O)N(CCC)CCC
inactive: [3] 91 % of control | [4] 88 % of control

CC12CCC(=O)C=C1CCC1C2CCC2(C)C(C(=O)COC(=O)Cc3ccc(N(CCCl)CCCl)cc3)CCC12 (stereo not drawn)
inactive: dose: 100.0 mg/kg/injection, schedule: Q01DX001 (sc), vehicle: steriod suspending solution 99 % of control | dose: 200.0 mg/kg/injection, schedule: Q01DX001 (sc), vehicle: steriod suspending solution 101 % of control | dose: 400.0 mg/kg/injection, schedule: Q01DX001 (sc), vehicle: steriod suspending solution 100 % of control | dose: 400.0 mg/kg/injection, schedule: Q01DX009 (ip), vehicle: Klucel (hydroxypropylcellulose) (HPC) 90 % of control
